Experimental data as given in PubChem BioAssay (NCI).
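Exposure lasted 48 hours, with cells grown in 96-well plates and compounds tested at five concentrations. At the GI50, growth is halved. TGI: concentration producing complete growth inhibition.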

What was measured:
Assay in all cases: growth of human tumour cells (NCI), 48 h
[1] = system: NCI-H23 lung
[2] = system: NCI-H460 lung
[3] = system: NCI-H522 lung
[4] = system: NCI/ADR-RES ovarian
[5] = system: OVCAR-3 ovarian
[6] = system: OVCAR-4 ovarian
[7] = system: OVCAR-5 ovarian
[8] = system: OVCAR-8 ovarian
[9] = system: PC-3 prostate
[10] = system: RPMI-8226 leukemia
[11] = system: RXF 393 renal
[12] = system: SF-268 CNS
[13] = system: SF-295 CNS
[14] = system: SF-539 CNS
[15] = system: SK-MEL-2 melanoma
[16] = system: SK-MEL-28 melanoma
[17] = system: SK-MEL-5 melanoma
[18] = system: SK-OV-3 ovarian
[19] = system: SN12C renal
[20] = system: SNB-19 CNS
[21] = system: SNB-75 CNS
[22] = system: SR leukemia
[23] = system: SW-620 colon
[24] = system: T-47D breast
[25] = system: TK-10 renal
[26] = system: U251 CNS
[27] = system: UACC-257 melanoma
[28] = system: UACC-62 melanoma
[29] = system: UO-31 renal

## Cn1cc(C2=C(c3cn(C)c4cc(C(=O)O)ccc34)C(=O)NC2=O)c2ccccc21
[1]
  TGI: > 25 µM
[2]
  GI50: > 25 µM
  TGI: > 25 µM
[3]
  GI50: > 12.1 µM
  TGI: > 20.1 µM
[4]
  GI50: > 25 µM
  TGI: > 25 µM
[5]
  GI50: > 25 µM
  TGI: > 25 µM
[6]
  GI50: > 25 µM
  TGI: > 25 µM
[7]
  GI50: > 25 µM
  TGI: > 25 µM
[8]
  GI50: > 25 µM
  TGI: > 25 µM
[9]
  GI50: > 25 µM
  TGI: > 25 µM
[10]
  GI50: > 25 µM
  TGI: > 25 µM
[11]
  GI50: > 19.8 µM
  TGI: > 25 µM
[12]
  GI50: > 25 µM
  TGI: > 25 µM
[13]
  GI50: > 25 µM
  TGI: > 25 µM
[14]
  GI50: > 25 µM
  TGI: > 25 µM
[15]
  GI50: > 15.5 µM
  TGI: 25 µM
[16]
  GI50: > 25 µM
  TGI: > 25 µM
[17]
  GI50: > 25 µM
  TGI: > 25 µM
[18]
  GI50: > 25 µM
  TGI: > 25 µM
[19]
  GI50: > 25 µM
  TGI: > 25 µM
[20]
  GI50: > 25 µM
  TGI: > 25 µM
[21]
  GI50: 4.96 µM
  TGI: > 25 µM
[22]
  GI50: > 13.4 µM
  TGI: > 25 µM
[23]
  GI50: > 25 µM
  TGI: > 25 µM
[24]
  GI50: 21.1 µM
  TGI: > 25 µM
[25]
  GI50: > 25 µM
  TGI: > 25 µM
[26]
  GI50: > 25 µM
  TGI: > 25 µM
[27]
  GI50: > 25 µM
  TGI: > 25 µM
[28]
  GI50: > 25 µM
  TGI: > 25 µM
[29]
  GI50: > 25 µM
  TGI: > 25 µM
